Measured values taken from ChEMBL document CHEMBL4414609, “High-Affinity Alkynyl Bisubstrate Inhibitors of Nicotinamide N-Methyltransferase (NNMT)” (J Med Chem, 2019).

Assays:
[1] = molecular target: T1, Nicotinamide N-methyltransferase (Homo sapiens, UniProt P40261); experiment: Inhibition of N-terminal His6-tagged wild type human NNMT expressed in Escherichia coli NiCo21(DE3) assessed as reduction in 1-methylquinolinium level using quinoline as substrate in presence of SAM and measured every 27 seconds for 5.5 mins by fluorescence-based assay; settings: read-out: pKi (converted)
T1 sequence (P40261 whole entry): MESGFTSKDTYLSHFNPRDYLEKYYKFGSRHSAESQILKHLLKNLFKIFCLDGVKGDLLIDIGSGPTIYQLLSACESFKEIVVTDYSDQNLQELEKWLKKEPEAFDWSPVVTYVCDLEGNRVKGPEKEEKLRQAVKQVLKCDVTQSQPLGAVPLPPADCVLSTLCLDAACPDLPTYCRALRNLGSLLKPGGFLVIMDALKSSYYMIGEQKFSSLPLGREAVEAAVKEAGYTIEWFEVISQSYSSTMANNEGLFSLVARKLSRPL

[2] = Permeability across apical to basolateral side in human Caco2 cells after 60 mins by HPLC-MS/MS analysis; type: ADME, cell-based; settings: caco-2, 1 h
U2OS = experiment: Cytotoxicity against human U2OS cells at 100 uM after 48 hrs by CellTiter-Glo luminescent cell viability; type: cell-based
[3] = molecular target: T2, Nicotinamide N-methyltransferase (Homo sapiens) (UniProt P40261); settings: K562, Lysate
T2 sequence (whole entry): T1 sequence (P40261 whole entry)

Row | Structure (SMILES) | Ki [1] [nM] | further results
1 | NC(=O)c1ccc(C#C[C@@H](CC[C@H](N)C(=O)O)C[C@H]2O[C@@H](n3cnc4c(N)ncnc43)[C@H](O)[C@@H]2O)cc1 | 5750 | 
2 | Nc1ncnc2c1ncn2[C@@H]1O[C@H](C[C@@H](C#Cc2cccc(S(N)(=O)=O)c2)CC[C@H](N)C(=O)O)[C@@H](O)[C@H]1O | 195 | 
3 | Nc1ncnc2c1ncn2[C@@H]1O[C@H](C[C@@H](C#Cc2ccc3c(c2)C(=O)NC3)CC[C@H](N)C(=O)O)[C@@H](O)[C@H]1O | 1860 | 
4 | NC(=O)c1cccc(C#C[C@H](CC[C@H](N)C(=O)O)C[C@H]2O[C@@H](n3cnc4c(N)ncnc43)[C@H](O)[C@@H]2O)c1 | 123 | 
5 | NCCC[C@H](C#Cc1cccc(C(N)=O)c1)C[C@H]1O[C@@H](n2cnc3c(N)ncnc32)[C@H](O)[C@@H]1O | 57.5 | permeability [2]: 1.3 ×10⁻⁶ cm/s; Activity (U2OS): Non-Toxic
6 | C#C[C@@H](CC[C@H](N)C(=O)O)C[C@H]1O[C@@H](n2cnc3c(N)ncnc32)[C@H](O)[C@@H]1O | 47900 | 
7 | Cc1ccc(C#C[C@@H](CC[C@H](N)C(=O)O)C[C@H]2O[C@@H](n3cnc4c(N)ncnc43)[C@H](O)[C@@H]2O)cc1C(N)=O | 3.39 | 
8 | NC(=O)c1ccccc1C#C[C@@H](CC[C@H](N)C(=O)O)C[C@H]1O[C@@H](n2cnc3c(N)ncnc32)[C@H](O)[C@@H]1O | 19500 | 
9 | Nc1ncnc2c1ncn2[C@@H]1O[C@H](C[C@@H](C#Cc2ccccc2)CC[C@H](N)C(=O)O)[C@@H](O)[C@H]1O | 12600 | 
10 | NC(=O)c1cccc(C#C[C@@H](CC[C@H](N)C(N)=O)C[C@H]2O[C@@H](n3cnc4c(N)ncnc43)[C@H](O)[C@@H]2O)c1 | 17 | permeability [2]: Impermeable; Activity (U2OS): Non-Toxic
11 | NC(=O)c1cccc(C#C[C@@H](CCCC(=O)O)C[C@H]2O[C@@H](n3cnc4c(N)ncnc43)[C@H](O)[C@@H]2O)c1 | 22400 | 
12 | NC(=O)c1cc(C#C[C@@H](CC[C@H](N)C(=O)O)C[C@H]2O[C@@H](n3cnc4c(N)ncnc43)[C@H](O)[C@@H]2O)ccn1 | 8.91 | 
13 | NC(=O)c1cccc(C#C[C@@H]2C[C@H]2[C@H]2O[C@@H](n3cnc4c(N)ncnc43)[C@H](O)[C@@H]2O)c1 | 3890 | 
14 | NC(=O)c1cc(C#C[C@@H](CC[C@H](N)C(=O)O)C[C@H]2O[C@@H](n3cnc4c(N)ncnc43)[C@H](O)[C@@H]2O)ccc1F | 1.86 | 
15 | NC(=O)c1cccc(CC[C@H](CC[C@H](N)C(=O)O)C[C@H]2O[C@@H](n3cnc4c(N)ncnc43)[C@H](O)[C@@H]2O)c1 | 107 | 
16 | NC(=O)c1cccc(CC[C@@H](CC[C@H](N)C(=O)O)C[C@H]2O[C@@H](n3cnc4c(N)ncnc43)[C@H](O)[C@@H]2O)c1 | 4.68 | 
17 | NC(=O)c1cccc(C#C[C@@H](CC[C@H](N)C(=O)O)C[C@H]2O[C@@H](n3cnc4c(N)ncnc43)[C@H](O)[C@@H]2O)n1 | 6.76 | 

Row | Structure (SMILES) | Ki [1] [nM] | further results
18 | NC(=O)c1ccnc(C#C[C@@H](CC[C@H](N)C(=O)O)C[C@H]2O[C@@H](n3cnc4c(N)ncnc43)[C@H](O)[C@@H]2O)c1 | 35.5 | 
19 | NC(=O)c1cccc(C#CCC[C@H]2O[C@@H](n3cnc4c(N)ncnc43)[C@H](O)[C@@H]2O)c1 | 263 | 
20 | CO[C@@H]1O[C@H](C[C@@H](C#Cc2cccc(C(N)=O)c2)CC[C@H](N)C(=O)O)[C@@H](O)[C@H]1O | 77600 | 
21 | NC(=O)c1cncc(C#C[C@@H](CC[C@H](N)C(=O)O)C[C@H]2O[C@@H](n3cnc4c(N)ncnc43)[C@H](O)[C@@H]2O)c1 | 5.01 | 
22 | NC(=O)c1cc(C#C[C@@H](CC[C@H](N)C(=O)O)C[C@H]2O[C@@H](n3cnc4c(N)ncnc43)[C@H](O)[C@@H]2O)c2c(c1)OCO2 | 32.4 | 
23 | Nc1cccc2c(C#C[C@@H](CC[C@H](N)C(=O)O)C[C@H]3O[C@@H](n4cnc5c(N)ncnc54)[C@H](O)[C@@H]3O)cccc12 | 3720 | 
24 | Nc1ncnc2c1ncn2[C@@H]1O[C@H](C[C@@H](C#Cc2ccc3c(c2)C(=O)NCC3)CC[C@H](N)C(=O)O)[C@@H](O)[C@H]1O | 55 | 
25 | NC(=O)CCC[C@H](C#Cc1cccc(C(N)=O)c1)C[C@H]1O[C@@H](n2cnc3c(N)ncnc32)[C@H](O)[C@@H]1O | 1050 | 
26 | COC(=O)[C@@H](N)CC[C@H](C#Cc1cccc(C(N)=O)c1)C[C@H]1O[C@@H](n2cnc3c(N)ncnc32)[C@H](O)[C@@H]1O | 437 | permeability [2]: Impermeable; Activity (U2OS): Non-Toxic
27 | NC(=O)c1cc(C#C[C@@H](CC[C@H](N)C(=O)O)C[C@H]2O[C@@H](n3cnc4c(N)ncnc43)[C@H](O)[C@@H]2O)ccc1C(F)(F)F | 2.63 | 
28 | NC(=O)c1cccc(C#C[C@@H](CCC[C@H](N)C(=O)O)C[C@H]2O[C@@H](n3cnc4c(N)ncnc43)[C@H](O)[C@@H]2O)c1 | 0.24 | 
29 | NC(=O)c1cccc(CCN(CC[C@H](N)C(=O)O)C[C@H]2O[C@@H](n3cnc4c(N)ncnc43)[C@H](O)[C@@H]2O)c1 | 912 | 
30 | Nc1ncnc2c1ncn2[C@@H]1O[C@H](CCCC[C@H](N)C(=O)O)[C@@H](O)[C@H]1O | 21400 | 
31 | NC(=O)c1cccc(CCN(CCC[C@H](N)C(=O)O)C[C@H]2O[C@@H](n3cnc4c(N)ncnc43)[C@H](O)[C@@H]2O)c1 | 89.1 | 
32 | NC(=O)NCC[C@H](C#Cc1cccc(C(N)=O)c1)C[C@H]1O[C@@H](n2cnc3c(N)ncnc32)[C@H](O)[C@@H]1O | 75.9 | ΔTm [3]: 5 °C; permeability [2]: Impermeable; Activity (U2OS): Non-Toxic
33 | NC(=O)c1cc(C#C[C@@H](CC[C@H](N)C(=O)O)C[C@H]2O[C@@H](n3cnc4c(N)ncnc43)[C@H](O)[C@@H]2O)ccc1Cl | 0.191 | 
